Measurements as given in patent US10648979B2, “Molecular probes for detecting gram-negative bacteria in vitro and in vivo” (priority 2014, dated 2020).
Entries after “also recorded” stand apart in the source; their conditions may differ. Bridge positions count the residues as written; N and C are the ends. Square brackets hold non-standard residues; d marks the D form. Peptide text beside a SMILES is read from it. * marks the point of attachment. ξ: configuration not given here. NBD = O=[N+]([O-])c1ccc(*)c2nonc12; dDab = NCC[C@@H](N)C(=O)O; Dab = NCC[C@H](N)C(=O)O; AEEA = NCCOCCOCC(=O)O; ξDab = NCCC(N)C(=O)O

Columns and labels:
[1] = water
human neutrophils = assay: Labelling of isolated human neutrophils (confocal); type: cell-based
Experimental: (§1) All compounds have undergone biological assessment.
(§2) Bacteria were prepared and counterstained with Syto 82 nucleic acid stain (Invitrogen, Calif., USA) in a shaking heat block at 37° C. and 350 rpm for 20 minutes. They were co-incubated with the probe at required concentration in a sealed POC mini chamber, or 8 well confocal chamber. When required the glass coverslip for the POC chamber was coated in fibronectin (for neutrophil experiments) or poly-d-lysine (for bacteria and cell lines) and incubated with cells with one hour at 37° C. to allow adherence prior to bacterial innoculation. Analysis was with ImageJ. Briefly, the Syto channel was automatically thresholded (Huang) and an ROI generated from this. The mean fluorescence intensity on the probe channel within this ROI was quantified. Data presented represents the mean of three separate fields of view.

[2] = Stability in saline or BALF from patients with Acute Lung Injury (MALDI-TOF / FTMS); conditions: incubated for 30 minutes
Experimental: FIG. 16: NBD-UBIdend is stable in ALI BALF. […] NBD-PMX is stable in ALI BALF.
Secondly we assessed stability of the probes in broncholalveolar lavage fluid (BALF) from patients with Acute Lung Injury (ALI) by Fourier Transform Mass Spectrometry (FTMS) and Matrix-Assisted Laser Desorption/Ionization Time-of-Flight Mass Spectrometry (MALDI-TOF MS) analysis. NBD-UBINle, NBD-UBIdend and NBD-PMX were incubated for 30 minutes with BALF (FIG. 16).
(§3) In vitro labelling was assessed on benchtop confocal in the presence of compound with bacteria and labelling was compared to NBD-UBINle which served as a reference control for bacterial labelling. […] For the ex vivo and in vivo ovine lung experiments each compound was assessed in a control lung segment (instilled with 2 ml PBS) or a bacterial segment (instilled with 2 ml of 2 optical density of bacteria). Following bacterial instillation, the compound was administered to the segment of interest and this was imaged by probe based confocal laser endomicroscopy (FCFM).
Probe was added to saline or pooled BALF from patients with ALI incubated for 30 minutes. A ZipTip (C-18, 0.2 μL) with 5 μL MeCN (with 0.1% TFA as an additive) followed by 20 μL of H2O was washed. The ZipTip was loaded with the sample, washed and eluted into 5 μL of 80% aq. MeCN (with 0.1% TFA as an additive). The sample was analysed by MALDI-TOF (PerSeptive Biosystems Voyager DETMSTR MALDI-TOF mass spectrometer (Applied Biosystems, Foster City, Calif.)).

[3] = test system: pre-labelled bacteria in ovine lung; assay: Pre-labelled bacteria instilled into the ovine lung and imaged by FCFM
Excerpt: FIG. 14: NBD-UBIdend and NBD-PMX are resistant to ‘wash off’ allowing detection of bacteria in the ovine lung. […] However, when bacteria pre-labelled with linear NBD-UBINle are instilled, no punctate signal is seen. Labelling was confirmed by imaging bacterial suspensions (left hand panels) before instillation into the lung and imaging by FCFM (right hand panels). Note the lower SNR for NBD-UBINle labelled bacteria in suspension. Representative images shown, n=3 for each experiment.
(§4) In the distal lung, there is likely to be significant and rapid dissipation of the probes immediately after delivery. Therefore, it is imperative that probe-bacterial labelling remains persistent under these conditions. […] As such, this resistance to ‘wash-off’ represents a surrogate indicator of probe-bacterial affinity which appears to be an absolute requirement for distal lung in situ labelling.
We have obtained evidence that the wash-off properties of the probes, most likely related to affinity and/or the nature of subsequent insertion into the bacterial membrane, impact on whether or not they can be used to successfully image in the lung. The retention of labelling upon removal of probe solution was investigated in vitro by confocal. With all of the linear UBI variants labelling was lost completely upon wash-off. […]

[4] = room temperature
PA3284 = assay: Bacterial labelling in the presence or absence of ovine lavage (confocal); type: cell-based, Pseudomonas aeruginosa; conditions: 1 μM
[5] = test system: panel of bacteria (Gram-negative and Gram-positive); assay: Flow cytometry of bacterial labelling; type: cell-based
Experimental: FIG. 7: NBD-UBIdend labels bacteria selectively over mammalian cells in vitro: A) Example images of a clinically relevant bacterial panel with NBD-UBIdend (5 μM; green) counterstained with the fluorescent generic cellular DNA dye Syto-82 (red) imaged by laser scanning confocal microscopy. B) Quantification of bacterial panel labelling NBD-UBIdend 5 μM (optimal concentration) where every bacteria in the panel is brighter when compared with MSSA and NBD-UBINle 10 μM (optimal concentration) C) Flow cytometry data with unstained bacteria (red), NBD-UBINle 15 μM (blue) and NBD-UBIdend 5 μM labelled bacteria (orange). […] Representative images shown, n≥3 for all experiments.
FIG. 8: NBD-PMX selectively labels Gram-negative bacteria in vitro. Example images of the bacterial panel with NBD-PMX imaged by laser scanning confocal microscopy. A) Bacterial panel with NBD-PMX 1 μM (green) and counterstain with syto-82 (red). […] C) Flow cytometric evaluation of bacterial labelling with NBD-PMX showing unstained bacteria (red) and NBD-PMX (blue) labelled bacteria. […] Representative images shown, n≥3 for all experiments.
Bacteria were prepared and counterstained with Syto 82 nucleic acid stain (Invitrogen, Calif., USA) in a shaking heat block at 37° C. and 350 rpm for 20 minutes. […] This was diluted to 500 uL and analysed using BD FACS Calibur using FL-1 and FL-2 channels, with 10,000 events. […]

bacterial panel = assay: Retention of labelling upon wash-off (PBS wash) in vitro by confocal; type: cell-based
Excerpt: FIG. 15: NBD-UBIdend retains fluorescence when wash performed. A) The bacterial panel was imaged by laser scanning confocal microscopy in the continued presence of NBD-UBIdend (black) and following PBS wash (white).
as §4
We have obtained evidence that the wash-off properties of the probes, most likely related to affinity and/or the nature of subsequent insertion into the bacterial membrane, impact on whether or not they can be used to successfully image in the lung. The retention of labelling upon removal of probe solution was investigated in vitro by confocal. With all of the linear UBI variants labelling was lost completely upon wash-off. […] Bacteria were pre-labelled with these linear NBD-UBINle compounds and successful labelling was confirmed by imaging the bacterial suspension pre-instillation.

human erythrocytes = assay: Haemolysis assay; conditions: up to 100 μM; 0.2% Triton-X = 100%
Experimental: Positive control was 0.2% Triton-X and values corrected to represent 100% haemolysis for Triton-X.
Erythrocytes were isolated from freshly drawn, anticoagulated human blood and resuspended to 20 vol % in PBS (pH 7.4). In a 96-well microtiter plate, 100 μl of erythrocyte suspension was added to 100 μl of NLLP solution in PBS (prepared by 1:2 serial dilutions) or 100 μl of PBS in the case of negative controls. One-hundred percent haemolysis wells contained 100 μl of red cell suspension with 100 μl of 0.2 vol % Triton X-100. The plate was incubated for 1 h at 37° C., and then each well was diluted with 150 μl of PBS. The plate was then centrifuged at 1,200 g for 15 min, 100 μl of the supernatant from each well was transferred to a fresh microtiter plate, and A350 was measured. Percentage of haemolysis was determined as (A−A0)/(Atotal−A0)×100, where A is the absorbance of the test well, A0 the absorbance of the negative controls, and Atotal the absorbance of 100% haemolysis wells, all at 350 nm on a Biotek plate reader.

A549 cells = assay: Labelling of A549 cells (confocal); type: cell-based, human
Experimental: as §1
A549 cells were grown in Dulbecco's modified Eagle's medium (DMEM) supplemented with 10% fetal bovine serum (FBS), 2 mM L-glutamine, 100 units/mL penicillin G and 100 μg/mL streptomycin to 80% confluence. Cells were dispersed with Trypsin-EDTA and seeded onto glass coverslips or 8 well confocal imaging chambers and grown to confluence in the presence of DMEM.
as §2

[6] = test system: panel of bacteria (P. aeruginosa, A. baumannii, S. maltophilia, K. pneumoniae, E. coli, H. influenzae, MRSA, MSSA, S. pneumoniae); assay: In vitro labelling of bacteria by laser scanning confocal microscopy; type: cell-based
Experimental: as §3

For `CC(C)C[C@@H]1NC(=O)[C@@H](Cc2ccccc2)NC(=O)[C@@H](CCN)NC(=O)C(NC(=O)[C@H](CCN)NC(=O)[C@@H](NC(=O)COCCOCCNc2ccc([N+](=O)[O-])c3nonc23)[C@@H](C)O)CCNC(=O)[C@@H]([C@H](C)O)NC(=O)[C@H](CCN)NC(=O)[C@H](CCN)NC1=O` (some centres unmarked) [NBD-PMX] ({NBD-AEEA}-T[Dab][ξDab][dDab][dF]L[Dab][Dab][dT]; lactam 3-C), the Solubility [1] was “Fully soluble in water”, the “labelling of human neutrophils” value (human neutrophils) was “no labelling of human neutrophils or A549 cells” and the “stability in ALI BALF” value [2] was “demonstrate stability”. The stability in saline [2] was “readily identified in both saline and BALF incubated samples”, the “detection of pre-labelled bacteria after instillation” value [3] was “readily visualised” and the Stability [4] was greater than 1 week. For the same molecule, the “fluorescence in ovine lavage versus absence of lavage” value (PA3284) was “no significant reduction of fluorescence intensity”, the “labelling of Gram-positive bacteria by flow cytometry” value [5] was “No significant labelling of Gram-positive bacteria” and the “retention of labelling upon wash-off” value (bacterial panel) was “resistant to wash-off”. For the same molecule, the red cell haemolysis (human erythrocytes) was “no red cell haemolysis”, the “labelling of A549 cells” value (A549 cells) was “retains selectivity of labeling over mammalian cells; also recorded: no labelling of human neutrophils or A549 cells” and the “labelling of Gram-positive bacteria” value ([6]; 1 μM) was “minimal/no labelling”. The “fluorescence on Gram-negative versus Gram-positive bacteria” value ([6]; 1 μM, p<0.05) was “significantly higher fluorescence on Gram-negative bacteria” and the bacterial labelling ([6]; Pseudomonas aeruginosa (PA) incubated with A549 cells) was “allows bacterial labelling”.
